Key:
[1] = test system: overall protein abundance; assay: Global proteomic analysis; assay type: cell-based; details: 5 µM compound vs vehicle, three independent samples each
Description: (A) Input IP .LM123L T-!=> V,!=>
MW Veh Cpd 2 Cpd 2 Veh !!!!!"#$$#B -45665 T4--8 -4;?,;
Progerin !!!!!E#)*+,- ,V4:-Ise::::: :etpoooomX,?4?V:enst9mmqo,848; !?#$B?CDEFCBG+I-+G.BLG+ […]
!!!!!*+,- 84;66L<-,VI9e::::::esnnsmqmXV4-;VL<-,?:estm9XpoX?4T-?L<-,8 FFFFF0BNNB$ :em9Xn […]
IgG heavy chain Iqep:m:p ne:qmppo:m :esmpqtmpn FFFFFSB#T89:I9em:m […]
50- Iqe9mt:: :eoX9ppnnm :eoqpq9s9p X9YF8=F>.-B2?E+FE??+E?@BBCA
FFFFF0BNNB$ rrrFNBF:eqoqs
Cpd 2 Veh FFFFFSB#T89:rrr […]
Vehicle .LM123L T-!=>(%C" V,!=> […]
50- !!!!!C#' -4TT8VLamin C -4T:T; (%$$-4-:?5T '()*+
!!!!!E#)*+,- ,V4:-β-Actin ,?4?V ,848; D(%
37- !!!!!*+,- 84;66L<-,V V4-;VL<-,? ?4T-?L<-,8 ,-)*+ […]
Abundance Ratio (log2): Ve h / Cpd 2
Supporting Figure S2. Ternary complex formation, progerin engagement and global selectivity of compound 2. (A) Progeroid […]/G609G fibroblasts treated with vehicle (0.1% DMSO) or compound 2 (5 µM) were subjected to immunoprecipitation with an anti-CRBN antibody and then immunoblotted with an anti-progerin antibody. Bar graph represents mean±sem of 2 independent experiments. (B) Representative progerin immunoblotting of the soluble fraction of LmnaG609G/G609G cell homogenates treated with […]
indicated temperature. (C) Thermal denaturation curves of progerin in the presence of vehicle (black) or compound 2 at 10 µM (red, DTm=0.7±0.1 °C) or 25 µM (blue, […]
of compound 2 (IC50=7±1 µM). […]

[2] = test system: Lmna^G609G/G609G fibroblasts; assay: Immunocytofluorescence (Ki‐67, lamin A/C) in mouse progeroid cells; assay type: cell-based; details: 5 µM
Description: Confocal fluorescence microscopy images are representative of 2 independent experiments. […] Representative cropped immunoblots are shown. […] MW, molecular weight (in kDa) markers. (C) PROTAC 2 decreases senescence‐associated β‐galactosidase (SA‐βgal) activity, interleukin (IL) 1α and p16 senescent markers. Lmna^G609G/G609G (G609G) or Lmna^+/+ (WT) fibroblasts were incubated with vehicle or compound 2 (5 µM). […] Data were analysed using one‐way ANOVA followed by Dunnett's post–hoc test. ^*, p < 0.05; ^**, p < 0.01, ^***, p < 0.001, ^****, p < 0.0001 vs G609G cells. […]
compound exposure. […]
TBS-T and proteins were visualized by quimioluminiscence (GE Healthcare […]
For immunocytofluorescence studies, mouse or human progeroid cells previously incubated with compound of interest or DMSO were seeded at a density of […] or 1.5 x 10^4 cells/well over 12 mm diameter slide covers respectively in a 12-well plate and were incubated for 24 h at 37 ᵒC with compound of interest. Cells were fixed with 4% formaldehyde (Ki67, pH2AX) or cold methanol (Lamin A/C, H3K9Me3) from Sigma-Aldrich during 20 min and permeabilized with PBS containing 0.2% Triton X-100 (PBS-T, Sigma-Aldrich). Then, cells were blocked with TBS 2% BSA during 30 min at rt, followed by incubation o.n. with anti-lamin A/C (Santa Cruz Biotechnology, SC-376248, […]
at 4 °C. After that, cells were washed with TBS (1x) and incubated in absence of light for 1 h with fluorescent goat anti-mouse (1:500, Alexa Fluor 488, Life Technologies) diluted in TBS with 2% BSA. Finally, cells were washed with TBS (2x) and the slide cover was carefully mounted with Immumount (Thermo Scientific). The visualization was carried out using confocal microscopy (Olympus IX83) equipped with a 40X oil immersion lens and the appropriate excitation and emission filters at the microscopy UCM facilities. […]
7. Senescence-associated (SA) β-galactosidase activity. […]

## CC1(C)Oc2cc3oc(=O)ccc3cc2C[C@@H]1OC(=O)CCCCCNc1cccc2c1C(=O)N(C1CCC(=O)NC1=O)C2=O (stereo partly shown) [compound 2]
[1]
  alterations in overall protein abundance (global proteomics): did not identify significant alterations in overall protein abundance
[2]
  cell proliferation (Ki‐67): significantly increases cell proliferation
  nuclear cell membrane thickness: decreases nuclear cell membrane thickness
  progerin accumulation in the nuclear membrane: decreases progerin accumulation in the nuclear membrane
